# Test results reported in patent US6391304B1, “Peptides derived from the ENV gene of the feline immunodeficiency virus and their applications” (Centre National de la Recherche Scientifique, priority 1997, dated 2002).
# Values joined by “and” are separate entries in the source; they are usually repeats but may differ in a detail not shown here. Equal entries are not always repeated. “Also recorded” adds a separate entry of the source.
# What was measured:
# [1] = system: envelope glycoproteins of the Petaluma strain; assay: Immunoprecipitation of envelope glycoproteins by sera (metabolically labelled FL-4 cells); format: in vivo, FIV; conditions: lysates of chronically infected FL-4 cells; groups of four cats
# Source text: The sera collected on the day of the test (at a dilution of 1/40) are used to immunoprecipitate the envelope glycoproteins derived from the metabolically labelled FL-4 cells and feline mononuclear cells (PBM cells) infected with the FIV Wo strain, as described in G. Pancino et al. (Virology, 1995, 206, 796-806).
# The recognition of the envelope glycoproteins is estimated by immunoprecipitation of the biosynthetically labelled envelope glycoprotein with sera collected on the day of the test, as summarized in Table I.
# [2] = system: immobilized peptide (SU2, SU5, TM2 or TM3-19); assay: ELISA anti-peptide titre during the immunization of cats; format: in vivo; conditions: individual cats immunized with KLH-coupled peptide; absorbance at 405 nm greater than 0.1
# Protocol: (§1) Groups of four cats 4½ months old are immunized subcutaneously with 120 μg of FIV peptide (approximately 250 μg of peptide coupled to KLH (keyhole limpet haemocyanin)), emulsified in complete Freund's adjuvant.
# (§2) Four repeat immunizations are administered subcutaneously in an incomplete Freund's adjuvant, generally at intervals of 2-3 weeks, although the interval between the last 2 […] was 7 weeks.
# (§3) The production on of antibodies is evaluated before the test by means of an ELISA using an immobilized peptide (SU2, SU5, TM2 or TM3-19) and immunoprecipitation. After the test, the seroconversion is monitored by an ELISA using immobilized envelope peptides and a recombinant FTV capsid protein.
# (§4) The ELISA with the immobilized envelope peptides corresponding to the immunogenic domains SU2 and TM2 and with the immobilized recombinant p25 protein (FIV capsid protein) is carried out as described in Avraméas A. et al. (Res. Virol., 1993, 144, 209-218).
# (§5) Microplates (Immunolon II, Dynatech) are coated with 0.5 μg/well for the peptides and with 0.1 μg/well for the p25 protein.
# (§6) The tests are carried out in duplicate and the results are expressed as average values.
# The anti-peptide titres before the test are expressed as the logarithm of the inverse of the last dilution of serum which gives an absorbance (at 405 nm) of greater than 0.1.
# TM2 envelope peptide = assay: Seroconversion ELISA after the virulence test, TM2 peptide; format: in vivo, cats
# Protocol: (§7) The cats are subjected to a virulence test, one week after the final immunization, by means of an intraperitoneal inoculation of 10 CID50 of FIV Wo isolate, one CID50 corresponding to the dose capable of infecting 50% of the cats.
# as §3, §4, §5, §6
# (§8) After the test, the seroconversion against the envelope peptides and the p25 protein is evaluated at serum dilutions of 1/25 and 1/100, respectively.
# (§9) The absorbance values (at 405 nm) are corrected by subtraction of the absorbance values obtained by binding with an immobilized control peptide.
# (§10) The tests are normalized with reference to the binding of a mixture of serum from cats infected with FIV with a peptide representing the immunodominant domain of the FIV transmembrane glycoprotein (TM2) (Avraméas A. et al., Res. Virol., 1993, 144, 209-218).
# FIV Wo isolate = assay: Plasmatic viral load by competitive RT-PCR after the virulence test; format: in vivo, cats; conditions: after test with 10 CID50 of Wo isolate, relative to control cats, FIG. 3
# Protocol: as §1, §2, §7
# The plasma is filtered (0.45 μm) and the RNA not associated with cells is extracted directly from the filtered plasma using the Viral RNA kit (Qiagene) and eluted in 50 μl of water according to the manufacturer's instructions, and the RNA is then divided into aliquots and stored at −80° C.
# A conserved region of the FIV gag gene is selected as a target sequence for the reverse transcription of the competitive RNA and the overlapping PCR amplification.
# For the synthesis of the cDNA, 2.5 μl of viral RNA are mixed with 2.5 μl containing different numbers of copies of competitive RNA; typically, the various samples of competitive RNA are prepared using 5 semi-logarithmic dilutions, straddling the number of copies estimated in the biological sample.
# The RNA is denatured at 65° C. for 5 minutes and immediately placed on ice. The reagents for the reverse transcription (15 μl) are added.
# The final reaction mixtures contain 0.3 U/ml of random hexanucleotides (sequences of 6 randomly aligned nucleotides which make it possible theoretically to amplify any RNA fragment) (Pharmcia), 0.5 mM of dNTP, 10 mM of DTT, 1× of commercial buffer (Gibco BRL) and 100 U of Superscript II (Glbco BRL), in a volume of 20 μl.
# The reactions are first carried out at 25° C. for 10 minutes to promote the hybridization of the primers, and then at 42° C. for 50 minutes. The reverse transcriptase is inactivated by incubation at 95° C. for 5 minutes.
# The highly conserved sequences are selected as primers. The complementary DNA is amplified by overlapping PCR, using:
# For the first amplification, the PCR reagents (80 μl) are added as a mixture with 20 μl of cDNA.
# The DNA is denatured at 94° C. for 3 minutes, subjected to 28 cycles of amplification (94° C. 30 s/55° C. 30 s/72° C. 30 s) and to an elongation at 72° C. for 7 minutes.
# For the overlapping amplification, 2 μl of the product of the first amplification is transferred into 98 μl of reaction mixture containing 200 μM of dNTP, 1.5 mM of MgCl2, 0.5 μM of each internal primer, 1× of commercial buffer (Gibco BRL) and 0.25 U of Taq polymerase (Gibco BRL).
# The DNA is denatured at 94° C. for 3 minutes, subjected to 28 cycles of amplification (94° C. 30 s/52° C. 30 s/72° C. 30 s) and to an elongation at 72° C. for 7 minutes.
# The amplification products (10 μl ) are subjected to electrophoresis on 2.75% agarose gel.
# Digital images of the gels stained with ethidium bromide are obtained using the Appligene Imager and the densitometry analyses are carried out with the Image NIH software. The density of the competitive product is adjusted as a function of the difference between the length of the native sequence and that of the competitive sequence.
# The logarithm of the ratio:density or competitive product/density of the native product, is plotted as a function of the logarithm of the number of copies of competitive RNA added to each reaction.
# The best adjustment is determined by the least-squares method and the number of copies of native RNA corresponds to the intersection of the axis of the Xs (Piatak M. Jr. et al., Biotechniques, 1993, 14, 70-80).
# The cumulative area under the curve (Dawson J., Drug Information J., 1994, 28, 723-732) is calculated from graphs illustrating the ratio: copies of viral RNA/ml of plasma/time, and compared with the Mann-Whitney test.
# [3] = system: p25 recombinant FIV capsid protein; assay: Seroconversion ELISA after the virulence test, p25; format: in vivo, cats; conditions: ELISA, seral dilution 1/100; individual cats
# Protocol: as §7, §3, §4, §5, §6, §8, §9, §10
# CD4+ T lymphocytes = assay: Counting of circulating CD4+ T lymphocytes by flow cytometry; format: in vivo, cats; conditions: acute infection with FIV Wo, FIG. 2
# Protocol: Counting of the CD4^+ T lymphocytes is carried out at regular intervals before the test, on the day of the test and at regular intervals during the acute infection.
# The CD4^+ T lymphocytes are counted by flow cytometry, using monoclonal antibodies (Clinisciences).
# To evaluate the effect of the immunization on the pathology associated with a primary infection, circulating CD4^+ lymphocytes are counted before and after the test with the FIV Wo strain.
# SU2 envelope peptide = assay: Seroconversion ELISA after the virulence test, SU2 peptide; format: in vivo, cats; conditions: ELISA, seral dilution 1/25; individual cats
# Protocol: as §7, §3, §4, §5, §6, §8, §9, §10
# FIV Petaluma strain = assay: Neutralization of infection of CrFK cells by sera of immunized cats; format: cell-based; conditions: CrFK cell line
# Protocol: The detection of antibodies neutralizing the infection of the CrFKs with the FIV Petaluma strain is carried out as described previously (Richardson J. et al., J. Gen. Virol., 1996, 77, 759-771).
# To evaluate the function of the antibodies, the feline sera directed against the SU2 peptide are tested for their neutralizing value with respect to the infection of CrFK cells with the FIV Petaluma strain.
# [4] = ELISA, seral dilution 1/25, individual cats
substance,measurement,setting,value
"SU5: peptide of the SU5 domain of the FIV surface envelope glycoprotein, SEQ ID NO: 3, used as immunogen (QVVKQPDYLVVPGEVMEYKPRR)",cats whose sera immunoprecipitate the envelope glycoproteins of the Petaluma strain,[1],all the cats
same,"Anti-peptide titre, 1st injection",[2],5.01 logarithm of the inverse of the last dilution of serum and 5.31 logarithm of the inverse of the last dilution of serum and 4.71 logarithm of the inverse of the last dilution of serum and >5.61 logarithm of the inverse of the last dilution of serum
same,"Anti-peptide titre, 2nd injection",[2],5.31 logarithm of the inverse of the last dilution of serum (3×) and 5.01 logarithm of the inverse of the last dilution of serum
same,"Anti-peptide titre, Day of the test",[2],4.71 logarithm of the inverse of the last dilution of serum and 5.01 logarithm of the inverse of the last dilution of serum (3×)
same,"Binding of the sera to TM2, 3 weeks after the virulence test",TM2 envelope peptide; [4],2.3 optical density and 0 optical density (2×) and 0.1 optical density
same,"Binding of the sera to TM2, 4 weeks after the virulence test",TM2 envelope peptide; [4],2.9 optical density and 2.8 optical density and 2.4 optical density and 0 optical density
same,"Binding of the sera to TM2, 5 weeks after the virulence test",TM2 envelope peptide; [4],3.0 optical density and 3.1 optical density and 2.8 optical density and 0 optical density
same,response against the TM2 peptide,TM2 envelope peptide; at 4 weeks after the test,developed a large response
same,"course of the primary infection (viral RNA in plasma, viral dissemination)",FIV Wo isolate,"the acute infection of 3 cats followed kinetics similar to those of the control cats, while infection in one of the cats appears in a retarded manner; also recorded: do not modify the course of the infection"
same,"Binding of the sera to p25, 3 weeks after the virulence test",[3],0.1 optical density and 0 optical density (3×)
same,"Binding of the sera to p25, 4 weeks after the virulence test",[3],2.7 optical density and 1.0 optical density and 0.2 optical density and 0 optical density
same,"Binding of the sera to p25, 5 weeks after the virulence test",[3],2.9 optical density and 2.2 optical density and 0.8 optical density and 0 optical density
same,number of CD4+ lymphocytes after the infection,CD4+ T lymphocytes,gradual reduction
same,"Binding of the sera to SU2, 3 weeks after the virulence test",SU2 envelope peptide,0 optical density
same,"Binding of the sera to SU2, 4 weeks after the virulence test",SU2 envelope peptide,1.9 optical density and 0.5 optical density and 0 optical density (2×)
same,"Binding of the sera to SU2, 5 weeks after the virulence test",SU2 envelope peptide,2.4 optical density and 0.7 optical density and 0.1 optical density and 0 optical density
same,neutralizing antibodies in sera of immunized cats,FIV Petaluma strain,do not neutralize
